Literature values, collected in patent US20100112724A1, “METHOD OF DETERMINATION OF PROTEIN LIGAND BINDING AND OF THE MOST PROBABLE LIGAND POSE IN PROTEIN BINDING SITE” (priority 2007, published 2010).

system: protein of the protein-ligand complex (pdb code); conditions: experimentally known binding affinity of test and training protein-ligand complexes selected from PDB, structures described in publications [7, 8, 9]

Row | SMILES | ΔG, kcal/mol (free energy of ligand-protein binding)
1 | O[C@@H]1[C@@H](O)[C@@H](O)CO[C@H]1O [1ABE] | -9.2 kcal/mol
2 | C[C@H]1O[C@H](O)[C@H](O)[C@@H](O)[C@H]1O [1ABF] | -7.3 kcal/mol
3 | Nc1ccnc2c1ncn2[C@@H]1O[C@H](CO)[C@@H](O)[C@H]1O [1ADD] | -9.2 kcal/mol
4 | OC[C@H]1O[C@H](O[C@H]2[C@H](O)[C@@H](O)[C@H](O)O[C@@H]2CO)[C@H](O)[C@@H](O)[C@@H]1O [1ANF] | -7.3 kcal/mol
5 | C[C@H]1O[C@@H](O)[C@H](O)[C@@H](O)[C@H]1O [1APB] | -7.8 kcal/mol
6 | O[C@@H]1[C@@H](O)[C@@H](O)OC[C@@H]1O [1BAP] | -9.3 kcal/mol
7 | CN[C@H]1CN(c2cccc(OC)c2)S(=O)(=O)c2sc(S(N)(=O)=O)cc21 [1BNM] | -14.2 kcal/mol
8 | COc1cccc(N2CCc3cc(S(N)(=O)=O)sc3S2(=O)=O)c1 [1BNN] | -14.2 kcal/mol
9 | CCN[C@H]1CN(CCOC)S(=O)(=O)c2sc(S(N)(=O)=O)cc21 [1BNQ] | -13.5 kcal/mol
10 | COc1ccc(N2C[C@H](O)c3cc(S(N)(=O)=O)sc3S2(=O)=O)cc1 [1BNT] | -13.9 kcal/mol
11 | NS(=O)(=O)c1cc2c(s1)S(=O)(=O)N(Cc1cccs1)C[C@@H]2O [1BNU] | -13.8 kcal/mol
12 | NS(=O)(=O)c1ccc(S(=O)(=O)NCc2cccs2)s1 [1BNW] | -12.9 kcal/mol
13 | CC1=C(/C=C/C(C)=C/C=C/C(C)=C/CO)C(C)(C)CCC1 [1BRP] | -9.3 kcal/mol
14 | O=C(O)C[C@@H](Cc1ccccc1)C(=O)O [1CBX] | -8.7 kcal/mol
15 | CCN[C@H]1C[C@H](C)S(=O)(=O)c2sc(S(N)(=O)=O)cc21 [1CIL] | -12.9 kcal/mol
16 | C[C@H]1C[C@H](N)c2cc(S(N)(=O)=O)sc2S1(=O)=O [1CIM] | -12 kcal/mol
17 | CN[C@H]1C[C@H](C)S(=O)(=O)c2sc(S(N)(=O)=O)cc21 [1CIN] | -11.9 kcal/mol
18 | C[C@]12CCC(=O)C[C@H]1CC[C@@H]1[C@@H]2CC[C@]2(C)C(=O)CC[C@@H]12 [1DBK] | -11 kcal/mol
19 | Nc1nc(=O)c2nc(CNc3ccc(C(=O)N[C@@H](CCC(=O)O)C(=O)O)cc3)cnc2[nH]1 [1DHF] | -10.1 kcal/mol
20 | N=C(N)c1ccccc1 [1DWB] | -4 kcal/mol
21 | N[C@@H](Cc1c[nH]cn1)C(=O)O [1HSL] | -9.8 kcal/mol
22 | C[C@H](NC(=O)[C@@H](CS)Cc1ccccc1)C(=O)NCC(N)=O [1JAO] | -8.1 kcal/mol
23 | CNC(=O)[C@H](Cc1ccccc1)NC(=O)[C@@H](CC(=O)NO)CC(C)C [1MNC] | -12.6 kcal/mol
24 | CC(=O)N[C@H]1[C@H]([C@H](O)[C@H](O)CO)OC(C(=O)O)=C[C@@H]1O [1NNB] | -7.2 kcal/mol
25 | CC(=O)N[C@H]1[C@H]([C@@H](O)[C@@H](O)CO)O[C@@](O)(C(=O)O)C[C@@H]1O [1NSC] | -4.1 kcal/mol
26 | O=C(O)[C@H](O)[C@@H](O)[C@H](O)[C@H](O)COP(=O)(O)O [1PGP] | -7.8 kcal/mol
27 | Cc1ccc(S(=O)(=O)N[C@@H](Cc2cccc(C(=N)N)c2)C(=O)N2CCCCC2)cc1 [1PPH] | -8.4 kcal/mol

Row | SMILES | ΔG, kcal/mol (free energy of ligand-protein binding)
28 | CC1=C(/C=C/C(C)=C/C=C/C(C)=C/CO)C(C)(C)CCC1 [1RBP] | -9.2 kcal/mol
29 | Nc1nc2c(ncn2[C@@H]2O[C@H](CO)[C@@H](O)[C@H]2OP(=O)(O)O)c(=O)[nH]1 [1RNT] | -7.1 kcal/mol
30 | NCC1CCCCC1 [1TNG] | -4 kcal/mol
31 | NCCCCc1ccccc1 [1TNI] | -2.3 kcal/mol
32 | NCCc1ccccc1 [1TNJ] | -2.7 kcal/mol
33 | NCCCc1ccccc1 [1TNK] | -2 kcal/mol
34 | N[C@H]1C[C@@H]1c1ccccc1 [1TNL] | -2.6 kcal/mol
35 | O=C(O)[C@@H](O)Cc1ccccc1 [2CTC] | -5.3 kcal/mol
36 | CC(=O)[C@H]1CC[C@H]2[C@@H]3CC[C@H]4C[C@@H](OC(=O)CCC(=O)O)CC[C@]4(C)[C@H]3CC[C@]12C [2DBL] | -11.9 kcal/mol
37 | OC[C@H]1O[C@@H](O)[C@H](O)[C@@H]1O [2DRI] | -8.9 kcal/mol
38 | OC[C@H]1O[C@@H](O)[C@H](O)[C@@H](O)[C@@H]1O [2GBP] | -10.2 kcal/mol
39 | CC(=O)N[C@H]1[C@H]([C@H](O)[C@H](O)CO)O[C@@](O)(C(=O)O)C[C@@H]1O [2QWB] | -3.7 kcal/mol
40 | CC(=O)N[C@H]1[C@H]([C@H](O)[C@H](O)CO)OC(C(=O)O)=C[C@@H]1O [2QWC] | -4.8 kcal/mol
41 | CC(=O)N[C@H]1[C@H]([C@H](O)[C@H](O)CO)OC(C(=O)O)=C[C@@H]1N [2QWD] | -6.6 kcal/mol
42 | CC(=O)N[C@H]1[C@H]([C@H](O)[C@H](O)CO)OC(C(=O)O)=C[C@@H]1N=C(N)N [2QWE] | -10.2 kcal/mol
43 | CCN(CC)C(=O)[C@@H]1OC(C(=O)O)=C[C@H](N)[C@H]1NC(C)=O [2QWG] | -11.5 kcal/mol
44 | CC(C)C[C@H](NP(=O)(O)O)C(N)=O [2TMN] | -8 kcal/mol
45 | O=C(O)COP(=O)(O)O [2YPI] | -6.6 kcal/mol
46 | N=C(N)c1ccccc1 [3PTB] | -6.3 kcal/mol
47 | OC[C@H]1O[C@H](O)[C@H](O)[C@@H](O)[C@H]1O [5ABP] | -8.9 kcal/mol
48 | O=P(O)(O)OC[C@@H](O)CO [6TIM] | -4.4 kcal/mol
49 | C[C@H]1O[C@H](O)[C@H](O)[C@@H](O)[C@H]1O [7ABP] | -8.7 kcal/mol
50 | O=C(COP(=O)(O)O)NO [7TIM] | -7.4 kcal/mol
51 | OC[C@H]1O[C@H](O)[C@H](O)[C@@H](O)[C@H]1O [8ABP] | -10.7 kcal/mol
52 | O=C(O)C[C@H](NC(=O)CP(=O)(O)O)C(=O)O [8ATC] | -10.3 kcal/mol
53 | OC[C@H]1O[C@@H](O)[C@H](O)[C@@H](O)[C@H]1O [9ABP] | -10.7 kcal/mol
